Assay results reported in ChEMBL document CHEMBL6078657, “Thiazolidinedione-based structure modification of ergosterol peroxide provides thiazolidinedione-conjugated derivatives as potent agents against breast cancer cells through a PI3K/AKT/mTOR pathway” (Bioorg Med Chem, 2025).

What was measured:
MCF7 [1] = experiment: Induction of apoptosis in human MCF7 cells assessed as viable cells at 1 uM measured after 48 hrs incubation by Annexin V-FITC/PI double staining assay (reference value: 92.8%); assay type: functional; conditions: read-out: Activity
MCF7 [2] = experiment: Induction of cell cycle arrest in human MCF7 cells assessed as accumulation of cells at S phase at 6 uM measured after 48 hrs by PI staining based flow cytometry analysis (reference value: 24.67%); assay type: functional
MCF7 [3] = experiment: Induction of cell cycle arrest in human MCF7 cells assessed as accumulation of cells at G0/G1 phase at 1 uM measured after 48 hrs by PI staining based flow cytometry analysis (reference value: 58.42%); assay type: functional
MCF7 [4] = experiment: Induction of cell cycle arrest in human MCF7 cells assessed as accumulation of cells at G0/G1 phase at 6 uM measured after 48 hrs by PI staining based flow cytometry analysis (reference value: 58.42%); assay type: functional
MCF7 [5] = experiment: Induction of apoptosis in human MCF7 cells assessed as necrotic cells at 3 uM measured after 48 hrs incubation by Annexin V-FITC/PI double staining assay (reference value: 0.77%); assay type: functional
HepG2 = experiment: Antiproliferative activity against human HepG2 cells assessed as cell viability measured after 48 hrs incubation by MTT assay; assay type: functional, cell-based; conditions: HepG2, 48 h
MCF7 [6] = experiment: Induction of apoptosis in human MCF7 cells assessed as necrotic cells at 1 uM measured after 48 hrs incubation by Annexin V-FITC/PI double staining assay (reference value: 0.77%); assay type: functional
4T1 = experiment: In vivo antitumor activity against mouse 4T1 cells transfected in BALB/c mouse assessed as tumor growth inhibition at 30 mg/kg, ip daily for 14 consecutive days relative to control; assay type: functional; conditions: 4T1, 336 h, time 14 day, read-out: TGI
[7] = Toxicity in healthy BALB/c mouse assessed as pathological changes in spleen at 20 mg/kg, ip daily for 14 consecutive days by HE staining based assay; assay type: organism-based; conditions: in vivo, 336 h, time 14 day
[8] = Toxicity in healthy BALB/c mouse assessed as pathological changes in lungs at 20 mg/kg, ip daily for 14 consecutive days by HE staining based assay; assay type: organism-based; conditions: in vivo, 336 h, time 14 day
[9] = Toxicity in healthy BALB/c mouse assessed as pathological changes in kidney at 40 mg/kg, ip daily for 14 consecutive days by HE staining based assay; assay type: organism-based; conditions: in vivo
MCF7 [10] = experiment: Inhibition of phosphorylation of PI3K in human MCF7 cells measured after 48 hrs by Western blot analysis; assay type: cell-based; conditions: dose 1-6 µM
MCF7 [11] = experiment: Inhibition of phosphorylation of Akt in human MCF7 cells measured after 48 hrs by Western blot analysis; assay type: cell-based; conditions: dose 1-6 µM

SMILES: CC(C)[C@@H](C)/C=C/[C@@H](C)[C@H]1CC[C@@H]2[C@]1(C)CC[C@H]1[C@]23C=C[C@]2(C[C@@H](OC(=O)NCCNC(=O)CN4C(=O)S/C(=C\c5cccc6ccccc56)C4=O)CC[C@]12C)OO3
- viability at 1 µM (MCF7 [1]): 84.4%
- Activity (MCF7 [2]): 2.87%
- Activity (MCF7 [3]): 66.09%
- Activity (MCF7 [4]): 89.86%
- Activity (MCF7 [5]): 0.77%
- IC50 (HepG2): 5.55 µM
- Activity (MCF7 [6]): 0.99%
- inhibition in vivo at 30 mg/kg (4T1): 86.2%
- Activity [7]: Non-toxic
- Activity [8]: Non-toxic
- Activity [9]: Non-toxic
- inhibition (MCF7 [10]): Dose-dependent-effect
- inhibition (MCF7 [11]): Dose-dependent-effect
